Data: patent publication US20050049293A1, “Use of cholinesterase antagonists to treat insulin resistance” (priority 2002, published 2005)
Read-outs that look alike come from different tables or passages of the source.

What was measured:
[1] = test system: hepatic muscarinic receptors (insulin resistance); details: cats, cited from earlier work
[2] = test system: HISS-dependent insulin resistance in sucrose-fed rats; assay: RIST during neostigmine infusion in liquid sucrose-fed rats (Example 3); type: in vivo; details: portal vein infusion
From the text: Since both forms of diet produced the same degree of HDIR, the model of sucrose feeding using the liquid diet was used to determine whether this HDIR was reversible with the anticholinesterase agent, neostigmine.
The model of insulin resistance produced by the 35% liquid sucrose diet (in addition to regular rodent food pellets and normal drinking water) was identical to the protocol described above for the assessment of HDIR in sucrose-fed rats.
The surgical preparation was identical to that described above for sucrose-fed rats tested for HDIR. In addition, a laparotomy and portal vein cannulation were carried out. […] Following a laporotomy, the portal vein was cannulated.
After conducting a control RIST, neostigmine was infused into the portal vein for at least […] before a second RIST was conducted to determine if this agent could reverse the insulin resistance. The doses of neostigmine were 1 and 2 μg/kg/min.

[3] = test system: atropine-induced HISS-dependent insulin resistance (HDIR); assay: Rapid insulin sensitivity test (RIST) in atropine model of 75% HDIR, reversal with neostigmine (Example 1); details: neostigmine 1 μg/kg/min ipv
[4] = control RIST index 94.8±11.2 mg/kg

For `COc1ccccc1CNCCCCCCNCCCCCCCCNCCCCCCNCc1ccccc1OC` [methoctramine], the “Dose achieving a similar degree of insulin resistance” value ([1]; M2 selective antagonist) is given as 10^−6 μmol/kg.
In the case of `CN(C)C(=O)Oc1cccc([N+](C)(C)C)c1` [neostigmine], the “Reversal of insulin resistance at 1 μg/kg/min” value ([2]; FIG. 3) is reported as “did not produce a reversal of insulin resistance”, the “RIST index during neostigmine 1 μg/kg/min” value [2, 4] is reported as 80.9 ± 27.3 mg/kg and the “RIST index during neostigmine 2 μg/kg/min” value [2, 4] is reported as 178.0 ± 17.7 mg/kg. The “RIST index during constant infusion of neostigmine” value ([3]; after atropine-induced 75% HDIR (blocked state 90.5±[…])) was 152.6 ± 15.2 mg/kg and the “Reversal of HDIR produced by atropine” value ([3]; FIG. 1) was “able to reverse the HDIR”.
For `CN1CCN(CC(=O)N2c3ccccc3C(=O)Nc3cccnc32)CC1` [pirenzepine], the “Dose achieving a similar degree of insulin resistance” value ([1]; M1 muscarinic selective antagonist) is given as 10^−7 mmol/kg.
